Experimental data from paper PMC6310865 (Proceedings of the National Academy of Sciences of the …, 2018).

Test system: CD4+ T cells
Assay type: cell-based, human
Conditions: all cases versus controls; […]

Substance | Tetramer-positive CD4+ T cells in T1N cases versus DQ0602 controls
NP261–275: nucleoprotein epitope shared between A/California/07/2009 and PR8 (RSALILRGSVAHKSC; UniProt P03466 261-275, looked up, fragment) | little to no significant differences
NP17–31: nucleoprotein epitope, PR8 specific (GERQNATEIRASVGK) | significant overabundance
